Consider three molecules from patent US20030109522A1, “Ophthalmologic treatment methods using selective iNOS inhibitors” (priority 2001, published 2003).

One series deals with T1, hecNOS (Homo sapiens, UniProt P29474).
T1 construct: made in house; host or cells: Sf9 insect cells, baculovirus vector
In words: Assay for time dependent inhibition, hecNOS. The series is classed as biochemical. The procedure:
(§1) Assay for Time Dependent Inhibition
(§2) Aliquots (10 μL) are removed at 0, 10,21 and 60 minutes and immediately added to a citrulline assay enzyme reaction mixture containing L-[2,3-^3H]-arginine and a final L-arginine concentration of 30 μM in a final volume of 100 μL. The reaction is allowed to proceed for 15 minutes at 37° C. and terminated by addition of stop buffer and chromatography with Dowex 50W X-8 cation exchange ion exchange resin as described for the citrulline NOS assay. The % inhibition of NOS activity by an inhibitor was taken as the percent inhibition in activity compared to control enzyme preincubated for the same time in the absence of inhibitor.

Series [1] has as its system LPS-induced increase in plasma nitrite/nitrate levels. Description: In vivo assay, endotoxin-treated rats. As to conditions: Rattus norvegicus, po, administered orally, plasma nitrite/nitrate 5 hours post-treatment, read-out: ED50. As for the experimental part: Plasma nitrite/nitrate levels can be determined 5 hours post-treatment.
Series [2] addresses T2, human endothelial constitutive NOS (hecNOS) (Homo sapiens, UniProt P29474).
T2 construct: made in house; host or cells: Sf9 insect cells, baculovirus vector
In words: Citrulline assay for nitric oxide synthase, hecNOS. The series is classed as biochemical. The following applies: averages across all experiments and all lots; 30 μM L-arginine.
Description: (§3) Citrulline Assay for Nitric Oxide Synthase
(§4) To measure NOS activity, 10 μL of enzyme is added to 40 μL of 50 mM Tris (pH 7.6) in the presence or absence of test compounds and the reaction initiated by the addition of 50 μL of a reaction mixture containing 50 mM Tris (pH 7.6), 2.0 mg/mL bovine serum albumin, 2.0 mM DTT, 4.0 mM CaCl2, 20 μM FAD, 100 μM tetrahydrobiopterin, 0.4 mM NADPH and 60 μL-arginine containing 0.9 μCi of L-[2,3-^3H]-arginine. The final concentration of L-arginine in the assay is 30 μM. For hecNOS or hncNOS, calmodulin is included at a final concentration of 40-100 nM. Following incubation at 37° C. for 15 minutes, the reaction is terminated by addition of 400 μL of a suspension (1 part resin, 3 parts buffer) of Dowex 50W X-8 cation exchange resin in a stop buffer containing 10 mM EGTA, 100 mM HEPES, pH 5.5 and 1 mM L-citrulline. After mixing the resin is allowed to settle and L-[2,3-^3H]-Citrulline formation is determined by counting aliquots of the supernatant with a liquid scintillation counter.

The subject of series [3] is nitrite production in human cartilage explants. Description: Human cartilage explant assay (IL-1 induced nitrite production). The format is cell-based. The following applies: Homo sapiens; inhibition of nitrite production, IL-1 stimulated explants. As for the experimental part: Human Cartilage Explant Assay
Bone pieces are rinsed twice with Dulbecco's Phosphate Buffered Saline (GibcoBRL) and once with Dulbecco's Modified Eagles Medium (GibcoBRL) and placed into a petri dish with phenol red free Minimum Essential Medium (MEM) (GibcoBRL). Cartilage was cut into small explants of approximately 15-45 mg in weight and one or two explants per well are placed into either 96 or 48 well culture plates with 200-500 μL of culture media per well. The culture media was either a custom modification of Minimum Essential Medium(Eagle) with Earle's salts (GibcoBRL) prepared without L-Arginine, without L-Glutamine and without phenol red or a custom modification of serumless Neuman and Tytell (GibcoBRL) medium prepared without L-arginine, without insulin, without ascorbic acid, without L-glutamine and without phenol red. Both are supplemented before use with 100 μM L-Arginine (Sigma), 2 mM L-glutamine, 1×HL-1 supplement (BioWhittaker), […] ascorbic acid (Sigma) and 150 pg/ml recombinant human IL-1[…] (RD Systems) to induce nitric oxide synthase. Compounds are then added in 10 μL aliquots and the explants incubated at 37° C. with 5% CO2 for 18-24 hours. The day old supernatant is then discarded and replaced with fresh culture media containing recombinant human IL-1 ? and compound and incubated for another 20-24 hours. […] All samples are done in quadruplicate. Unstimulated controls are cultured in media in the absence of recombinant human IL-1[…]. IC50 values (Table I) are determined from plotting the percent inhibition of nitrite production at six different concentrations of inhibitor.

Series [4] deals with T3, Human inducible NOS (hiNOS) (Homo sapiens, UniProt P35228).
T3 construct: made in house; host or cells: Sf9 insect cells, baculovirus vector
In words: Citrulline assay for nitric oxide synthase, hiNOS. The series is classed as biochemical. The following applies: averages across all experiments and all lots; 30 μM L-arginine.
Description: as §3, §4

For the next series, the target named is T4, hncNOS (Homo sapiens, UniProt P29475).
T4 construct: made in house; host or cells: Sf9 insect cells, baculovirus vector
In words: Assay for time dependent inhibition, hncNOS. The series is classed as biochemical. The following applies: 0.9 μM. As for the experimental part: as §1, §2

For a further series, the target named is T5, hiNOS (Homo sapiens, UniProt P35228).
T5 construct: made in house; host or cells: Sf9 insect cells, baculovirus vector
Description: Assay for time dependent inhibition, hiNOS. The following applies: 2.2 μM. The series is classed as biochemical. As for the experimental part: as §1, §2

The target in series [5] is T6, human neuronal constitutive NOS (hncNOS) (Homo sapiens, UniProt P29475).
T6 construct: made in house; host or cells: Sf9 insect cells, baculovirus vector
Description: Citrulline assay for nitric oxide synthase, hncNOS. The series is classed as biochemical. As to conditions: averages across all experiments and all lots; 30 μM L-arginine.
Description: as §3, §4

The subject of another series is retinal ganglion cells. As to conditions: rats with chronic moderately elevated IOP; cited from earlier work.

In general, inhibition refers to the change of the read-out against control, counted positive when it falls. A high value points to a response far below the control. The term ED50 denotes the dose at which the effect has come halfway, by size or by number of responders. Usually IC50 stands for the concentration needed to halve the response being measured. The melting point is the temperature of the solid-liquid transition.

Structures are written as SMILES.

T2 sequence (P29474 2-1203): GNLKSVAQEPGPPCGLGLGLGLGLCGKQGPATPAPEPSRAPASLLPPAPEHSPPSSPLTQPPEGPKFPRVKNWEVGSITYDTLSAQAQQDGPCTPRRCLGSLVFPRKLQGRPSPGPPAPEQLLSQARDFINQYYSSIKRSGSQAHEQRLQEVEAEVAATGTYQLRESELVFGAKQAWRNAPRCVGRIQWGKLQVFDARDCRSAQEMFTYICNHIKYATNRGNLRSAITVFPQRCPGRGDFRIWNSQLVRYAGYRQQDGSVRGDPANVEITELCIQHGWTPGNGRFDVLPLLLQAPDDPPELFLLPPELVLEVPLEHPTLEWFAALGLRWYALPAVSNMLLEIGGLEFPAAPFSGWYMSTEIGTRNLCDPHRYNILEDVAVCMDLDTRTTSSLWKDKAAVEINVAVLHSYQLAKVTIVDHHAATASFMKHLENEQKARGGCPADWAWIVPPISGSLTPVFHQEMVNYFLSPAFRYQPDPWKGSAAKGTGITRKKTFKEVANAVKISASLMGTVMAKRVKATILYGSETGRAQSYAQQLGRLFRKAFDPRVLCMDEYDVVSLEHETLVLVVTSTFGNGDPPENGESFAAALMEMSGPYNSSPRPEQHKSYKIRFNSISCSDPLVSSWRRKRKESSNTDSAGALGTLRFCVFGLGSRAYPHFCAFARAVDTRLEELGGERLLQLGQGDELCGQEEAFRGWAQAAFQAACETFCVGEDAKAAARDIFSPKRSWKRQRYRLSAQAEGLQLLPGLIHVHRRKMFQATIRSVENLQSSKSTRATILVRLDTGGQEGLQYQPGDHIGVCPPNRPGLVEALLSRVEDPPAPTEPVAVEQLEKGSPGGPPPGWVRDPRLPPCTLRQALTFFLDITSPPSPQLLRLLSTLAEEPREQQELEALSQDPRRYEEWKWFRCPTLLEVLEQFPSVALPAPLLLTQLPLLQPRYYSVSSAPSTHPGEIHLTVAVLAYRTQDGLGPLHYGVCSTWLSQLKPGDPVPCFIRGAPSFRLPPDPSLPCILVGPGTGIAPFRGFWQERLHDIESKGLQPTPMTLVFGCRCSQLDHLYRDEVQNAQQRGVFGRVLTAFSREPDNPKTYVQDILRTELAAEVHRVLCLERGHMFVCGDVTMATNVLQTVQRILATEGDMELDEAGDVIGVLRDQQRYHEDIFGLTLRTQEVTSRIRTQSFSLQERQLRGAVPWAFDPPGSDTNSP
T6 sequence (P29475 whole entry): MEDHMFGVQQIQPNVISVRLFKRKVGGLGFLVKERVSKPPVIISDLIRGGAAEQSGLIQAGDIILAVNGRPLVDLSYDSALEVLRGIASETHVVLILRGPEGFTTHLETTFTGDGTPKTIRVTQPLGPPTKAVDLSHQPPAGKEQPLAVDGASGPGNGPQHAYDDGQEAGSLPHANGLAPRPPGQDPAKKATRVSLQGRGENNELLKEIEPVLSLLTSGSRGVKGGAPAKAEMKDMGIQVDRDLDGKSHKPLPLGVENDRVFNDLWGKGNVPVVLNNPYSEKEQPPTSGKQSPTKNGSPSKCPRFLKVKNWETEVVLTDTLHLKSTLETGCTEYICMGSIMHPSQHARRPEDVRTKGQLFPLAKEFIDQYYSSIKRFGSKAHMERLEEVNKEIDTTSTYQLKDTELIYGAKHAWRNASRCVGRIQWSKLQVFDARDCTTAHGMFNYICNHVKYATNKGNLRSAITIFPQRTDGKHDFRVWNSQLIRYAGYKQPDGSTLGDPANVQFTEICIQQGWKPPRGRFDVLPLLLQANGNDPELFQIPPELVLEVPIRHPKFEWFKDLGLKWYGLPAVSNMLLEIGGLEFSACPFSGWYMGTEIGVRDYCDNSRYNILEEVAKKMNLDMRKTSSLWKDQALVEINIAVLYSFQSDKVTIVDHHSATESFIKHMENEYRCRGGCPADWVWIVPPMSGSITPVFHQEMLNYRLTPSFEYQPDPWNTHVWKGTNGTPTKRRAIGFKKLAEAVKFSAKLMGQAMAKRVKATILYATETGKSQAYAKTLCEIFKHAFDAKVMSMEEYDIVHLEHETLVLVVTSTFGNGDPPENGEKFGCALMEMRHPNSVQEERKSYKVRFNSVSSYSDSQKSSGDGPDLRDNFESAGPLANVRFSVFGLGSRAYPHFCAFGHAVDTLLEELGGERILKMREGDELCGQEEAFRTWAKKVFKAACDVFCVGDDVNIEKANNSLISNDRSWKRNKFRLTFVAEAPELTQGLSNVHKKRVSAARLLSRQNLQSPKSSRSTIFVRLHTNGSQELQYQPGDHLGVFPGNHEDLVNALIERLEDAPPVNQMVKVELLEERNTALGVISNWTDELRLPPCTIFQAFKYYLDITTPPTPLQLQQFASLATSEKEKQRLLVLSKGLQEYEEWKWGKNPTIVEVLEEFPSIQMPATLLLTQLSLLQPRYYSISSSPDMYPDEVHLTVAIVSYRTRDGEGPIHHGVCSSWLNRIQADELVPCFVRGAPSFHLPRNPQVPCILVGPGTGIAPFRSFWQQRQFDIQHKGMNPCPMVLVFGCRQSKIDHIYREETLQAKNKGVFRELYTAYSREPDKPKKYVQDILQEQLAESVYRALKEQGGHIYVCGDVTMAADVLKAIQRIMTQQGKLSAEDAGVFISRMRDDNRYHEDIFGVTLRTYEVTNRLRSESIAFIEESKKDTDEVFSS
T3 sequence (P35228 whole entry): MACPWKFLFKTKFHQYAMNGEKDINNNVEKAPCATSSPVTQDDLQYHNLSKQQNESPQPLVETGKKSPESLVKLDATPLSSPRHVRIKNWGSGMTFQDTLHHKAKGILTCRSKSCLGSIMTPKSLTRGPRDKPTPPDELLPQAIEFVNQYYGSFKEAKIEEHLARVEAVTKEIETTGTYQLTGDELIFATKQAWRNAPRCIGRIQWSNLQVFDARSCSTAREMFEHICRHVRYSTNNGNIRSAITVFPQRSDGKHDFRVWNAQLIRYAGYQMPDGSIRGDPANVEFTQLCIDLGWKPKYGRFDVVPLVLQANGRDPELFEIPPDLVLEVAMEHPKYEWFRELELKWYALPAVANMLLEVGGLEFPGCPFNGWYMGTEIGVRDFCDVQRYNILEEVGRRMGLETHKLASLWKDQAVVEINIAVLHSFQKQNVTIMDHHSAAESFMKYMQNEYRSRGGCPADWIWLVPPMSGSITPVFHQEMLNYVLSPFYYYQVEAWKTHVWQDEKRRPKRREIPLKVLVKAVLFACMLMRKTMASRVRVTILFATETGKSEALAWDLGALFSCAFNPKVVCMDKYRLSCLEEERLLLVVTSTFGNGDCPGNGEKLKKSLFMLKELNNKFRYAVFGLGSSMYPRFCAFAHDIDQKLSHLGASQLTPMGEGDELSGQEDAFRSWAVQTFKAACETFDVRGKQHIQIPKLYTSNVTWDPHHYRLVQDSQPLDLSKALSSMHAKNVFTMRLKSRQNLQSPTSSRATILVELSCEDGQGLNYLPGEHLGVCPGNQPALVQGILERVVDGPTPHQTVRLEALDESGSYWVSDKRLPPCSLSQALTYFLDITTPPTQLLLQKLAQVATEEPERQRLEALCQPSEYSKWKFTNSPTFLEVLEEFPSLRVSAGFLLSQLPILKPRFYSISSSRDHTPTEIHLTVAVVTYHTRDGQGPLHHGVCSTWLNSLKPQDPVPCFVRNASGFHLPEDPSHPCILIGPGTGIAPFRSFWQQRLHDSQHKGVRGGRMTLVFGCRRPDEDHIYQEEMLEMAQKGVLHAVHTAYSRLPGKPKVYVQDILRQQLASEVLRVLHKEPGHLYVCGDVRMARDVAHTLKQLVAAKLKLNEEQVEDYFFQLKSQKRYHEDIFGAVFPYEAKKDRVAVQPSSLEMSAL

As to `N=C1CCCC[C@H](C/C=C\C[C@H](N)C(=O)O)N1` [Example AA, (2S,4Z)-2-amino-6-[(2R)-hexahydro-7-imino-1H-azepin-2-yl]-4-hexenoic Acid], the inhibition at 2.2 µM on hecNOS (2.2 μM, 60 min preincubation) was 55%; against hiNOS (21 min preincubation), 96%; at hiNOS (60 min preincubation) it was 97%. The inhibition at 5.7 µM on hecNOS (5.7 μM, 21 min preincubation) amounted to 58%. The ED50 in series [1] is < 10 mg/kg. The IC50 in series [2] was > 5 µM; in series [3] it was < 3 µM; in series [4] it was < 3 µM; in series [5] it was < 3 µM. In addition, the inhibition at 0.9 µM at hncNOS (21 min preincubation) was determined as 34%; against hncNOS (60 min preincubation), 0%.

The molecule `CC(=NO)NC/C(F)=C\CC[C@H](N)C(=O)O` [Example G, (2S,5E)-2-amino-6-fluoro-7-[(1-hydroximinoethyl)amino]-5-heptenoic Acid] gave a melting point of 198 to 200 °C. Besides, the 50% effective dose (ED50) in series [1] is < 0.1 mg/kg.

As for `N=C(N)NN` [aminoguanidine], in the series on retinal ganglion cells, the “loss of retinal ganglion cells” value is listed as “blocks loss of retinal ganglion cells”.
